Columns and labels:
[1] = Effects of different dissolution media on release rate of sustained-release pellet of topiramate; type: physicochemical; conditions: artificial gastric fluid with pH of 1.2; degradation reaction
Experimental: In order to verify whether acidic, basic solvent media would influence the release rate of the sustained-release pellets of the present invention, 0.1 mol/L HCl (pH1.2) was prepared as artificial gastric fluid, […] phosphate buffer (pH6.8) was prepared as artificial intestinal fluid, and these media and water (500 ml) were used as release media separately, and rotation speed was 100 rpm, 37° C. 5 ml of Samples (supplemented with equivalent volume of media at the meantime) were separately taken at 1, 2, 4, 8, 12, 16, 20, 24 h, filtrated, and the subsequent filtrates were used as test solutions. High performance liquid chromatography (Appendix V D, Part II, Chinese Pharmacopoeia, 2010 Edition) was used, octylsilane-bonded silica gel was used as packing agent, 50% methanol was mobile phase, differential refractive detector was used, and flow rate was 1.5 ml per minute. 200 μl of test solution was taken and injected in liquid chromatography, and the peak area of topiramate as main drug was recorded; moreover, topiramate was taken as reference material and measured by the same method, and accumulative release percentages of drug at different time points were calculated by external standard method. The release profile of sample of Batch 1 in Example 6 (2) in the above mentioned media were drawn, and the results were shown in FIG. 2.

[2] = cited from earlier work
[3] = cited from earlier work; remark: listed apart in the source
human plasma protein = conditions: plasma concentration range of 0.5-250 μm/ml; decreases with increase of plasma concentration; cited from earlier work

CC1(C)O[C@@H]2[C@@H](CO[C@@]3(COS(N)(=O)=O)OC(C)(C)O[C@@H]23)O1 [Topiramate, 2,3,4,5-bis-O-(1-methylethylidene)-β-D-fructopyranose sulfamate]
Stability of topiramate in artificial gastric fluid [1]: unstable | Solubility in organic solvents ([2]; acetone, chloroform, dimethylsulfoxide and ethanol): freely soluble | Solubility in alkaline solution ([2]; pH of 9-10, sodium hydroxide or sodium phosphate solutions): very freely soluble | Plasma half-life ([3]; human, in vivo): 19 to 25 h | Clearance for oral administration ([3]; oral administration): 22 to 36 mL/min | Human plasma protein binding ratio (human plasma protein): 15-41%
